A short description of one series: PAMPA assay. The conditions noted are these: pH 7.4. The series is classed as in vitro ADME. The procedure: PAMPA assay was performed by BioAssay Systems Services or Bristol Myers Squibb. The method used by BioAssay Systems Services is described below.
Stock solutions in DMSO for all compounds (10 mM) were thawed. The assay was performed in duplicate by following the PAMPA-096 procedure for sample plating. 4% Lecithin in dodecane solution was prepared by resuspending the dried lecithin with 750 μL dodecane. PBS pH 7.4 was used as the diluent. Two sets of plates and equilibrium solutions were incubated for 4 hours at room temperature. Acceptor and equilibrium solutions were analyzed in a UV plate. OD280 nm was used for High Permeability Control (chloramphenicol). OD270 nm was used for Medium Permeability Control (diclofenac) and Low Permeability Control (theophylline). OD254 nm was used for the test compounds.
Data analysis was performed by using the peak absorbance for each respective test compound and Permeability Control to determine the Permeability Rate (Pe) via the following equation: […]
where ODA is the absorbance of Acceptor Solution, ODE is the absorbance of the Equilibrium Standard, and C is determined by the equation below: […]
where Donor Volume (VD) is 0.2 cm^3, Acceptor Volume (VA) is 0.3 cm^3, and Membrane Area (Area) is 0.24 cm^2.
(In general: PAMPA measures passive passage across an artificial lipid membrane.)

Another series deals with CXCR4 (Homo sapiens, UniProt P61073). The series is described as follows: cAMP assay in CXCR4-CHO-Glo cells (GloSensor, forskolin + SDF-1α). Also on record: expressed in transfected cells. The series is classed as cell-based. From the text:
Materials, reagents, and instrument—Advanced DMEM (Gibco), trypsin EDTA (0.05%, phenol red), L-glutamine, HBSS buffer with and without Ca^2+/Mg^2+ (Gibco), antibiotic-antimycotic (Gibco), hygromycin B, and geneticin selective antibiotic (G418 sulfate) were purchased from Invitrogen. Forskolin (Tocris), SDF-1α (R&D Systems), HEPES (Sigma Aldrich), FBS (Atlanta Biologicals), D-luciferin (Gold Biotechnology), sterile 60 mm tissue culture dishes, and 96-well sterile tissue culture plates were purchased from Corning.
The assay targeted CXCR4 expressed in CHO-gloSensor cells. It monitored GPCR activation based on forskolin-stimulated cAMP production in cells. The assay used a genetically encoded biosensor with its cAMP binding domain fused to luciferase. Binding of cAMP to the cAMP binding domain changed the conformation of the biosensor, leading to the activation of luciferase. The intensity of the luciferase signal (light output) resulted from the oxidation of D-luciferin to oxyluciferin is proportional to the amount of cAMP produced in the cells.
The assay was performed in triplicate using live cells in 96-well tissue culture plates. Cells were pre-incubated in the dark at room temperature for one hour in the presence of D-luciferin. Bioluminescence was quantified before and after the agonist/antagonist addition. Stock solution of forskolin and SDF-1a, was prepared in Locke-Luc buffer. Stock solutions of the test compounds were prepared in DMSO (10 mM); they were diluted by Locke's buffer for use in the assay.
CHO-Glo cells, a cell line stably expressing the GloSensor cAMP biosensor (Promega), were transfected with cDNA encoding human CXCR4 in Pires-AcGFP1 (Clontech) and a stable cell line was isolated (CXCR4-CHO-Glo cells). The CXCR4-CHO-Glo cells were grown to confluency on 60 mm tissue culture dishes. After trypsinization, the cells were plated on 96-well plates and incubated overnight. The next day, culture media in each well was aspirated and replaced with 100 μL Locke's buffer containing 4 mM D-luciferin, followed by incubation in the dark for one hour. Before the addition of agonist/antagonist, each plate was read five times at 2 min intervals to obtain basal bioluminescence values from each well. The average of these five pre-readings was used to normalize each well's response to account for differences in GloSensor expression and cell density. After five pre-readings, cAMP formation was initiated with the addition of 50 μL solution of test compound (TC) in Locke Luc buffer containing forskoline and SDF-1α. […] Luminescence was measured immediately after the addition of the antagonist solution. The measurements were taken every two minutes for 30 minutes in kinetics mode after antagonist addition. IC50 values were calculated from the 4-parameter logistic equation using Prism GraphPad.
For orientation: cAMP levels reflect the balance of adenylyl cyclase and phosphodiesterase activity.

A short description of series [1]: Metabolic stability assay, human liver microsomes (HLM). The series is classed as in vitro ADME. Particulars: 10 min. From the text:
Controls were processed and analyzed like the test compounds.
For orientation: Liver microsomes are vesicles of endoplasmic reticulum, rich in cytochrome P450 enzymes.

The next series is described as follows: in vitro. The conditions noted are these: mouse, 10 min, 3 µM, pH 7.4. The method, then:
Metabolic stability assay was performed at Emory University's Department of Chemistry or by Bristol Myers Squibb. The method used by Emory University's Department of Chemistry is described below.
Each method was developed in the presence of an internal standard (ISTD) d5-7-ethoxy coumarin. The column temperature was maintained at 40° C. for most of the samples otherwise noted. The detection was operated in the Agilent JetStream electrospray positive ionization using multiple reaction monitoring mode (MRM).
Other MS conditions were as follows: dwell time 100 ms; gas flow 10 L/min; nebulizer pressure 45 psi; delta EMV 200 V; fragmentor voltage and collision energy for individual compounds vary.
Test compounds were dissolved in 100% DMSO or 100% MeOH to make 10 mM stock solutions. Verapamil (Sigma Aldrich) aided as a positive control and was dissolved in 100% DMSO to make 10 mM stock solutions. The 10 mM stock solution of test and control compounds were further diluted in potassium phosphate buffer (100 mM, pH 7.4) to 500 μM to ensure the organic solvent content was <0.2%. Human liver microsomes (HLMs) were purchased from Xenotech at 20 mg/mL. NADPH (Sigma Aldrich) 10 mM stocks were prepared in deionized water.
The HLM assay was prepared in a 1.5 mL Eppendorf tube with a final volume of 1100 μL for duplicate runs. Each reaction contained phosphate buffer (928.4 μL), liver microsomes (55 μL), and test compound resulting in a final concentration of 3 μM (6.6 μL of 500 μM). The reaction was initiated with 110 μL of 10 mM NADPH. […] Before centrifugation each of the aliquoted tubes were vortexed to make sure compounds were in the solution. The aliquots were centrifuged at 12,000 g for 5 min and the supernatant removed and placed in an LC-MS vial. Each time point was assessed using LC-MS and the area, based on the extracted ion, was integrated with respect to the ISTD. […] A no-NADPH negative control with test or control compound was performed in a single run (150 μL) at the longest time point. Controls were processed and analyzed like the test compounds. Each time point was run in duplicates followed by in-between blank washes to avoid the carryover and to equilibrate the column.
The MLM assay was performed using the same procedures as those described above for the HLM assay.

Usually Papp stands for a coefficient for how fast a substance crosses the barrier. The term IC50 denotes the point on the concentration scale where inhibition reaches its midpoint.

CXCR4, sequence (P61073 whole entry): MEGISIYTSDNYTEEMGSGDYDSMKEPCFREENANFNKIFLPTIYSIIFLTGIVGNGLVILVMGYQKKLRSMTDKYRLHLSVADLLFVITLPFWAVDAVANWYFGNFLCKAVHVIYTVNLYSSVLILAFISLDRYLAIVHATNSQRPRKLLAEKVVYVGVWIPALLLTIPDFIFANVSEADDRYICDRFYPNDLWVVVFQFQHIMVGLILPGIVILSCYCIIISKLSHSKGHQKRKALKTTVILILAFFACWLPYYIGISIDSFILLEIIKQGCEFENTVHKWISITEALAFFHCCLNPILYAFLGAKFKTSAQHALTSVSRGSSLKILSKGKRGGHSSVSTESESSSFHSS

Regarding `CN(C[C@H]1Cc2c(cccc2N2CC3CC2CO3)CN1)[C@H]1CCCc2cccnc21` (stereo in doubt) [EMU-325, (S)—N—(((R)-5-((1R,4R)-2-oxa-5-azabicyclo[2.2.1]heptan-5-yl)-1,2,3,4-tetrahydroisoquinolin-3-yl)methyl)-N-methyl-5,6,7,8-tetrahydroquinolin-8-amine], the Papp at 4 h in “PAMPA assay” came out at 123 nm/s. On the same count and under the same terms, as for `c1cnc2c(c1)CCC[C@@H]2N(CCCN1CCNCC1)C[C@H]1Cc2c(cccc2N2CCOCC2)CN1` [EMU-184, (S)—N—(((R)-5-morpholino-1,2,3,4-tetrahydroisoquinolin-3-yl)methyl)-N-(3-(piperazin-1-yl)propyl)-5,6,7,8-tetrahydroquinolin-8-amine], the figure is 30 nm/s; as for `Cc1cnc(CN(C)C[C@H]2Cc3c(cccc3N3CCOCC3)CN2)c(C)c1` [EMU-260, (R)-1-(3,5-dimethylpyridin-2-yl)-N-methyl-N-((5-morpholino-1,2,3,4-tetrahydroisoquinolin-3-yl)methyl)methanamine], 192 nm/s; as for `CN(CCCCN(C[C@H]1Cc2c(cccc2N2CCOCC2)CN1)[C@H]1CCCc2cccnc21)C1CCC(F)(F)CC1` [EMU-273, N1-(4,4-difluorocyclohexyl)-N1-methyl-N4-(((R)-5-morpholino-1,2,3,4-tetrahydroisoquinolin-3-yl)methyl)-N4-((S)-5,6,7,8-tetrahydroquinolin-8-yl)butane-1,4-diamine], 226 nm/s.

Regarding `CCN1CCN(CCCN(C[C@H]2Cc3c(cccc3N3CCOCC3)CN2)[C@H]2CCCc3cccnc32)CC1` [EMU-275, (S)—N-(3-(4-ethylpiperazin-1-yl)propyl)-N—(((R)-5-morpholino-1,2,3,4-tetrahydroisoquinolin-3-yl)methyl)-5,6,7,8-tetrahydroquinolin-8-amine], in the series “PAMPA assay”, the Papp at 4 h turned out to be 100 nm/s. Same read-out and setting: as for `CN(C[C@H]1Cc2c(cccc2N2C[C@H]3CC[C@@H](C2)O3)CN1)[C@H]1CCCc2cccnc21` [EMU-295, (S)—N—(((R)-5-((1R,5S)-8-oxa-3-azabicyclo[3.2.1]octan-3-yl)-1,2,3,4-tetrahydroisoquinolin-3-yl)methyl)-N-methyl-5,6,7,8-tetrahydroquinolin-8-amine], the figure is 165 nm/s; as for `C[C@@H]1CN(c2cccc3c2C[C@H](CN(C)[C@H]2CCCc4cccnc42)NC3)CCO1` [EMU-317, (S)—N-methyl-N—(((R)-5-((R)-2-methylmorpholino)-1,2,3,4-tetrahydroisoquinolin-3-yl)methyl)-5,6,7,8-tetrahydroquinolin-8-amine], 155 nm/s. On the same count and under the same terms, as for `C[C@H]1CN(c2cccc3c2C[C@H](CN(C)[C@H]2CCCc4cccnc42)NC3)CCO1` [EMU-318, (S)—N-methyl-N—(((R)-5-((S)-2-methylmorpholino)-1,2,3,4-tetrahydroisoquinolin-3-yl)methyl)-5,6,7,8-tetrahydroquinolin-8-amine], the figure is 166 nm/s.

Regarding `CN(C[C@H]1Cc2c(cccc2N2CCOCC2)CN1)[C@H]1CCOc2cccnc21` [EMU-319, (4S)—N-methyl-N-((5-morpholino-1,2,3,4-tetrahydroisoquinolin-3-yl)methyl)-3,4-dihydro-2H-pyrano[3,2-b]pyridin-4-amine], in the series “PAMPA assay”, the Papp at 4 h stood at 160 nm/s. Same read-out and setting: in the case of `CN(C[C@H]1Cc2c(cccc2N2CCO[C@@H](CO)C2)CN1)[C@H]1CCCc2cccnc21` [EMU-322, ((R)-4-((R)-3-((methyl((S)-5,6,7,8-tetrahydroquinolin-8-yl)amino)methyl)-1,2,3,4-tetrahydroisoquinolin-5-yl)morpholin-2-yl)methanol] it was 131 nm/s. As to `CN(C[C@H]1Cc2c(cccc2N2CCN(C(N)=O)CC2)CN1)[C@H]1CCCc2cccnc21` [EMU-326, 4-((R)-3-((methyl((S)-5,6,7,8-tetrahydroquinolin-8-yl)amino)methyl)-1,2,3,4-tetrahydroisoquinolin-5-yl)piperazine-1-carboxamide], the IC50 at CXCR4 came to 0.492 µM. Besides, in series [1], the “Liver Microsomes % rem. @ 10 min. H” value turned out to be 87.1%. Besides, in “in vitro”, the “Liver Microsomes % rem. @ 10 min. M” value came out at 78.3%. In addition, the Papp at 4 h in “PAMPA assay” came out at 76 nm/s. Consider `CN(C)C(=O)N1CCN(c2cccc3c2C[C@H](CN(C)[C@H]2CCCc4cccnc42)NC3)CC1` [EMU-327, N,N-dimethyl-4-((R)-3-((methyl((S)-5,6,7,8-tetrahydroquinolin-8-yl)amino)methyl)-1,2,3,4-tetrahydroisoquinolin-5-yl)piperazine-1-carboxamide], for which the IC50 on CXCR4 came out at 0.684 µM. For the same compound, the “Liver Microsomes % rem. @ 10 min. H” value in series [1] was found to be 11.00%. In the series “in vitro”, the “Liver Microsomes % rem. @ 10 min. M” value turned out to be 38.10%. The Papp at 4 h in “PAMPA assay” was 122 nm/s. Turning to `C[C@@H]1COCCN1c1cccc2c1C[C@H](CN(C)[C@H]1CCCc3cccnc31)NC2` [EMU-338, (S)—N-methyl-N—(((R)-5-((R)-3-methylmorpholino)-1,2,3,4-tetrahydroisoquinolin-3-yl)methyl)-5,6,7,8-tetrahydroquinolin-8-amine], the Papp at 4 h in the series “PAMPA assay” came out at 157 nm/s.

In turn, `C[C@H]1COCCN1c1cccc2c1C[C@H](CN(C)[C@H]1CCCc3cccnc31)NC2` [EMU-339, (S)—N-methyl-N—(((R)-5-((S)-3-methylmorpholino)-1,2,3,4-tetrahydroisoquinolin-3-yl)methyl)-5,6,7,8-tetrahydroquinolin-8-amine] yielded a Papp at 4 h in the series “PAMPA assay” of 171 nm/s.

The values above are taken from patent US12692259B2, “Morpholine-containing and piperazine-containing CXCR4 modulators and uses related thereto” (Emory University, priority 2021, dated 2026).
